Key:
[1] = molecular target: T1, HDAC7 (Homo sapiens, UniProt Q8WUI4); assay: In vitro HDAC inhibition fluorescence assay, HDAC7; type: biochemical
T1 construct: purchased BPS Bioscience
T1 sequence (Q8WUI4 1-952): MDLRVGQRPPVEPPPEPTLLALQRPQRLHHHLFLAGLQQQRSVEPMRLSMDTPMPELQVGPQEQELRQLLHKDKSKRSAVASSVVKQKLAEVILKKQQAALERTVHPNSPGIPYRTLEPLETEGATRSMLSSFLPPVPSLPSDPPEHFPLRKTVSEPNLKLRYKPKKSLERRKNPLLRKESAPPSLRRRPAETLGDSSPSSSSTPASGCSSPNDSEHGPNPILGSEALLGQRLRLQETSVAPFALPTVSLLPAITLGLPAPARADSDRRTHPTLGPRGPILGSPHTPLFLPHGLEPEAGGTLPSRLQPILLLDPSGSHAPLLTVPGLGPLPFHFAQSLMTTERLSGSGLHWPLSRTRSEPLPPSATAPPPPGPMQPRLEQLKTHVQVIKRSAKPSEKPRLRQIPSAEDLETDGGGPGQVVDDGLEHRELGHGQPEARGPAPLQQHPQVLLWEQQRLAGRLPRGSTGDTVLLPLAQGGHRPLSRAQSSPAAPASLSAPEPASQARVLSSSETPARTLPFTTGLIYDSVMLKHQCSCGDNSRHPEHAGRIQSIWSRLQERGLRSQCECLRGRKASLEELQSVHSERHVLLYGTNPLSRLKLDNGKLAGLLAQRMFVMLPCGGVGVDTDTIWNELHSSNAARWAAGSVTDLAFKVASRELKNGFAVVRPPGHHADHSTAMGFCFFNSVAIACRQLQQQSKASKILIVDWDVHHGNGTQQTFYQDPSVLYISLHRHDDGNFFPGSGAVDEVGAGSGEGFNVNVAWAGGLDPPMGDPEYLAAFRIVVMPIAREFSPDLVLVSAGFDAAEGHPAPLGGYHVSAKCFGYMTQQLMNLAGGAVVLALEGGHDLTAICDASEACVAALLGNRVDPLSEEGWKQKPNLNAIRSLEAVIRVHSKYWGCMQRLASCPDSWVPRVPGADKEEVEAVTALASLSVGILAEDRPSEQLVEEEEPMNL
Experimental: (§1) All of the HDAC enzymes were purchased from BPS Bioscience. In vitro HDAC inhibition assays were conducted as previously described. In brief, 20 μL of recombinant HDAC enzyme solution (HDAC1-9, 11) was mixed with various concentrations of the tested compound (20 μL). The mixture was incubated at 37 °C for 1 h, and then, 10 μL of fluorogenic substrate (Boc-Lys (acetyl)-AMC for HDAC1, 2, 3 and 6; Boc-Lys (trifluoroacetyl)AMC for HDAC4, 5, 7, 8, 9 and 11) was added to achieve a final concentration of 50 μM. After incubation at 37 °C for 2 h, the catalysis was stopped by the addition of 10 μL of developer containing 30 mg/mL trypsin and 6 μM trichostatin A (TSA). Then, 30 min later, the fluorescence intensity was measured using a microplate reader at excitation and emission wavelengths of 360 and 460 nm, respectively. The inhibition ratios were calculated from the fluorescence intensity readings of tested wells relative to those of control wells, and the IC50 curves and values were determined by GraphPad Prism 6.0, using the “log(inhibitor) vs. normalized response-variable slope” function.

[2] = molecular target: T2, HDAC11 (Homo sapiens, UniProt Q96DB2); assay: In vitro HDAC inhibition fluorescence assay, HDAC11; type: biochemical
T2 construct: purchased BPS Bioscience
T2 sequence (Q96DB2 1-347): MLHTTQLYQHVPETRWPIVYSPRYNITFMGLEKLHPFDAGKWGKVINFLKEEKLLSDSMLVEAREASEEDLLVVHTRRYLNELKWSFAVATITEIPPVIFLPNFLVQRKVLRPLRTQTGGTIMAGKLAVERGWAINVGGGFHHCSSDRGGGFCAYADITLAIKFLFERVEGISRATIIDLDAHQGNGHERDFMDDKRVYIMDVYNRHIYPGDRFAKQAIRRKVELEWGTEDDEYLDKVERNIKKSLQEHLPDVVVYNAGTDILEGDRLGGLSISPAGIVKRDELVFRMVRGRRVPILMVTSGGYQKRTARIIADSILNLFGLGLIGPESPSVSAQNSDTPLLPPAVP
Experimental: as §1

[3] = test system: MV4-11 cells; assay: Cell viability assay (resazurin), MV4-11; type: cell-based; conditions: Homo sapiens, MV4-11, 72 h; read-out: IC50 anti-proliferative activity MV4-11
Experimental: (§2) The AML cell lines MV4-11, THP-1, KASUMI-1 and HL-60 were purchased from Procell Life Science & Technology Co., Ltd. (Wuhan, China). THP-1 and KASUMI-1 were cultured in RPMI-1640 complete medium containing 10% fetal bovine serum and 1% penicillin and streptomycin. MV4-11 was cultured in IMDM complete medium containing 10% fetal bovine serum and 1% penicillin and streptomycin. HL-60 was cultured in IMDM complete medium containing 20% fetal bovine serum and 1% penicillin and streptomycin. All cell lines were cultured in an incubator with humidity set at 95%, temperature at 37 °C and 5% CO2.
(§3) MV4-11, THP-1, KASUMI-1 and HL-60 cells were plated in 96-well transparent plates (10,000 to 15,000 cells/100 μL) and after incubation overnight, cells were treated with gradient-diluted inhibitors with several concentrations. After the cells were incubated with inhibitors for 72 h, 1 mg/mL of Resazurin (Sigma-Aldrich, Saint Louis, MO, USA) was added (working concentration was 0.1 mg/mL). After incubation at 37 °C for about 3 h, the fluorescence intensity of […] was measured at 560 nm/590 nm (excitation/emission) with a Spectra Max i3 Microplate Reader, and the cell viability was determined. The IC50 curve was drawn using GraphPad Prism 9.5 software.

[4] = test system: THP-1 cells; assay: Cell viability assay (resazurin), THP-1; type: cell-based; conditions: Homo sapiens, THP-1, 72 h; read-out: IC50 anti-proliferative activity THP-1
Experimental: as §2, §3

[5] = test system: MV4-11 cells; assay: Microdilution checkerboard assay, 25c combined with Venetoclax; type: cell-based; conditions: Homo sapiens, 72 h, read-out: Inhibition Rate (%)
Experimental: The inhibition effect of 25c combined with Venetoclax on the proliferation of MV4-11 cells was determined by microdilution checkerboard assay. CompuSyn software was used to calculate the combined action index of the two compounds, and the cell inhibition rates of the two compounds acting alone and the combined action were input to calculate the combination index (CI) to evaluate the synergistic effect of the drugs. A CI value less than 1 indicates a synergistic effect, a CI value equal to 1 indicates an additive effect and a CI value greater than 1 indicates an antagonistic effect.

[6] = In vitro stability in artificial gastric juice; type: in vitro ADME; conditions: 37 °C, within 24 h
Experimental: Equal samples were collected, and 600 μL acetonitrile was added to quench enzyme reactions. The reaction mixture was swirled for 30 s and then centrifuged at 15,000 rpm at 4 °C for 15 min. The supernatant of each sample was analyzed directly by HPLC (1260 Infinity II, Agilent Technologies, Waldbronn, Germany).

`CCCNNC(=O)C=Cc1ccc(CNCCc2ccccc2)cc1` [Compound 25c, 3-(4-((Phenethylamino)methyl)phenyl)-N′-propylacrylohydrazide] gave an IC50 [1] greater than 10000 nM, an IC50 [2] greater than 10000 nM and an IC50 [3] of 340 ± 117 nM. The IC50 [4] was 392 ± 60.5 nM, the inhibition at 0.13 µM ([5]; 25c 0.13 μM alone) was 15.8% and the inhibition at 0.19 µM ([5]; 25c 0.19 μM alone) was 33.9%. For the same compound, the inhibition at 0.28 µM ([5]; 25c 0.28 μM alone) was 69.8% and the “stability in artificial gastric juice” value [6] was “relatively stable”.

Reference: paper PMC11204923, “Marine Cytotoxin Santacruzamate A Derivatives as Potent HDAC1-3 Inhibitors and Their Synergistic Anti-Leukemia Effects with Venetoclax” (Marine Drugs, 2024)
